Data published in the supplement of paper PMC10307832.

Key:
Assay in all cases: relative viability (nuclei count vs DMSO), 5 days (fraction); higher = more cells survive
Selisistat + Linsitinib = compound: C1CC(C2=C(C1)C3=C(N2)C=CC(=C3)Cl)C(=O)N [Selisistat] + C[C@]1(O)C[C@@H](c2nc(-c3ccc4ccc(-c5ccccc5)nc4c3)c3c(N)nccn32)C1 [Linsitinib] (partner 1 µM)
Method in brief: (§1)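 Nuclei were stained with Hoechst during a one-step fixation (final 0.05% Triton X-100, 1% formaldehyde, 1 ug/ml Hoechst) carried out 5 days after dosing, then counted on 4× images. The cells, lung cancer lines in 1536-well plates, had been dosed by pin tool the day after seeding with one drug alone or a fixed anchor-drug dose plus five library-drug doses (not always all listed) in √10 steps. Relative viability is the nuclei count in treated wells divided by that in vehicle wells, and each value is the median of duplicate plates.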

Selisistat + Dasatinib = compound: C1CC(C2=C(C1)C3=C(N2)C=CC(=C3)Cl)C(=O)N [Selisistat] + Cc1nc(Nc2ncc(C(=O)Nc3c(C)cccc3Cl)s2)cc(N2CCN(CCO)CC2)n1 [Dasatinib] (partner 0.075 µM)
Method in brief: as §1

Selisistat + Pemetrexed = compound: C1CC(C2=C(C1)C3=C(N2)C=CC(=C3)Cl)C(=O)N [Selisistat] + Nc1nc2[nH]cc(CCc3ccc(C(=O)N[C@@H](CCC(=O)O)C(=O)O)cc3)c2c(=O)[nH]1 [Pemetrexed] (partner 0.2 µM)
Method in brief: as §1

Serdemetan + Lapatinib = compound: c1ccc2c(CCNc3ccc(Nc4ccncc4)cc3)c[nH]c2c1 [Serdemetan] + CS(=O)(=O)CCNCc1ccc(-c2ccc3ncnc(Nc4ccc(OCc5cccc(F)c5)c(Cl)c4)c3c2)o1 [Lapatinib] (partner 2 µM)
Method in brief: as §1

Cell Line | relative viability (Selisistat + Linsitinib; first compound 0.4 µM) | relative viability (Selisistat + Linsitinib; first compound 1.265 µM) | relative viability (Selisistat + Linsitinib; first compound 12.65 µM) | relative viability (Selisistat + Linsitinib; first compound 40 µM) | relative viability (Selisistat + Dasatinib; first compound 0.4 µM) | relative viability (Selisistat + Dasatinib; first compound 1.265 µM) | relative viability (Selisistat + Dasatinib; first compound 12.65 µM) | relative viability (Selisistat + Dasatinib; first compound 40 µM) | relative viability (Selisistat + Pemetrexed; first compound 0.4 µM) | relative viability (Selisistat + Pemetrexed; first compound 1.265 µM) | relative viability (Selisistat + Pemetrexed; first compound 12.65 µM) | relative viability (Selisistat + Pemetrexed; first compound 40 µM) | relative viability (Serdemetan + Lapatinib; first compound 0.04 µM) | relative viability (Serdemetan + Lapatinib; first compound 0.1265 µM) | relative viability (Serdemetan + Lapatinib; first compound 0.4 µM) | relative viability (Serdemetan + Lapatinib; first compound 1.265 µM) | relative viability (Serdemetan + Lapatinib; first compound 4 µM) | relative viability (Selisistat + Linsitinib; first compound 4 µM) | relative viability (Selisistat + Dasatinib; first compound 4 µM) | relative viability (Selisistat + Pemetrexed; first compound 4 µM)
HCC-15 | 1.03 | 0.918 | 0.902 | 0.696 | 0.716 | 0.625 | 0.594 | 0.613 | 0.241 | 0.222 | 0.23 | 0.213 | 0.819 | 0.847 | 0.84 | 0.657 | 0.637 |  |  | 
COR-L23 | 1.04 | 0.872 | 0.899 | 0.876 | 0.523 | 0.583 | 0.529 | 0.494 | 0.182 | 0.212 | 0.19 | 0.2 | 0.916 | 0.924 | 1.03 | 0.422 | 0.78 | 1.04 | 0.579 | 0.193
HCC-78 | 0.571 | 0.483 | 0.537 | 0.437 | 0.486 | 0.628 | 0.421 | 0.414 | 0.917 | 0.949 | 0.774 | 0.878 | 0.769 | 0.666 | 0.323 | 0.448 | 0.78 | 0.553 | 0.293 | 0.924
NCI-H2087 | 0.953 | 0.957 | 0.737 | 0.818 | 1.08 | 0.837 | 0.82 | 0.777 | 0.681 | 0.624 | 0.634 | 0.691 | 1.06 | 0.974 | 1.1 | 0.641 | 0.508 | 0.885 |  | 
BEN | 0.971 | 0.986 | 0.762 | 0.827 | 0.308 | 0.269 | 0.353 | 0.295 | 0.876 | 0.614 | 0.698 | 0.68 | 0.623 | 0.704 | 0.592 | 0.359 | 0.556 | 0.812 | 0.233 | 0.532
EKVX | 1.14 | 0.982 | 0.914 | 0.939 | 0.575 | 0.509 | 0.409 | 0.392 | 0.348 | 0.314 | 0.342 | 0.404 | 0.193 | 0.19 | 0.201 | 0.18 | 0.168 | 0.983 |  | 0.361
LXF-289 | 0.995 | 0.954 | 0.913 | 1.01 | 0.286 | 0.239 | 0.245 | 0.303 | 0.925 | 1.04 | 0.841 | 0.959 | 0.857 | 0.885 | 0.851 | 0.827 | 0.759 | 0.895 | 0.305 | 0.83
NCI-H650 | 0.824 |  | 0.72 | 1.01 | 0.427 | 0.469 | 0.382 | 0.493 | 0.961 | 0.907 | 0.921 | 1.18 | 0.779 | 0.844 | 1.05 | 0.667 | 0.669 | 0.987 | 0.52 | 1.06
NCI-H2085 | 0.985 | 1 | 0.803 | 0.902 | 0.262 | 0.219 | 0.27 | 0.257 | 1.06 | 0.967 | 0.939 | 0.877 | 0.814 | 0.779 | 0.74 | 0.649 | 0.501 | 0.795 | 0.204 | 0.622
NCI-H1793 | 0.977 | 0.822 | 1.01 | 1.17 | 0.359 | 0.394 | 0.426 | 0.344 | 1.06 | 0.824 | 1.03 | 0.867 | 0.644 | 0.679 | 0.637 | 0.38 | 0.625 |  |  | 
LC-2-ad | 0.88 | 0.846 | 0.808 | 0.856 | 0.611 |  | 0.459 | 0.569 | 0.263 | 0.268 | 0.285 | 0.261 | 0.916 | 1 | 0.954 |  | 0.913 | 0.867 | 0.456 | 0.268
COR-L 105 | 0.755 | 0.918 | 1.02 | 0.914 | 0.339 | 0.357 | 0.297 | 0.32 | 1.16 | 1.07 | 0.869 | 1.1 | 0.384 | 0.372 | 0.284 | 0.335 | 0.363 | 0.933 |  | 1.16
NCI-H1355 | 0.903 | 0.838 | 0.974 | 0.996 | 0.684 | 0.688 | 0.65 | 0.789 | 1.12 | 1.08 | 1.08 | 1.11 | 0.938 | 1.13 | 0.911 | 1.02 | 0.973 |  | 0.519 | 1
H3255 | 0.946 | 0.843 | 0.827 | 0.938 | 0.385 | 0.369 | 0.331 | 0.428 | 0.556 | 0.556 | 0.552 | 0.526 | 0.222 | 0.229 | 0.258 | 0.251 | 0.186 | 0.973 | 0.309 | 0.528
NCI-H1993 | 0.719 | 0.72 | 0.648 | 0.773 | 0.629 | 0.655 | 0.672 | 0.589 | 0.581 | 0.711 | 0.554 | 0.592 | 0.873 | 0.861 | 0.75 |  | 0.768 |  | 0.501 | 
NCI-H1734 | 0.956 | 0.913 | 0.846 | 0.828 | 0.48 | 0.469 | 0.502 | 0.464 | 0.357 | 0.388 | 0.434 | 0.391 | 0.855 |  | 0.833 | 0.0959 | 0.195 | 0.913 | 0.622 | 0.401
HOP-62 | 1.04 | 1.18 | 0.978 | 0.94 | 0.677 | 0.626 | 0.642 | 0.664 | 0.327 | 0.284 | 0.284 | 0.488 | 0.862 | 1.06 | 0.937 | 0.791 | 0.89 | 1.07 | 0.507 | 0.448
LOU-NH91 | 0.999 | 0.95 | 1.08 | 0.937 | 0.611 | 0.54 | 0.534 | 0.598 | 0.329 | 0.339 | 0.395 | 0.459 | 0.773 | 0.83 |  | 0.606 | 0.83 | 0.848 | 0.515 | 0.42
NCI-H2228 | 0.857 | 0.566 | 0.656 | 0.598 | 0.68 | 0.577 | 0.536 | 0.557 | 0.32 | 0.308 | 0.325 | 0.408 | 1.07 | 1.03 | 0.984 | 0.431 | 0.391 | 0.562 | 0.449 | 0.344
PC-14 | 0.951 | 1.05 | 0.946 | 0.951 | 0.259 | 0.302 | 0.289 | 0.3 | 0.116 | 0.152 | 0.139 | 0.137 | 0.335 | 0.3 | 0.295 | 0.259 | 0.251 | 0.963 | 0.279 | 0.123
NCI-H1437 | 1.11 | 0.981 | 0.986 | 0.89 | 0.399 | 0.349 | 0.331 | 0.514 | 0.321 | 0.328 | 0.28 | 0.299 | 0.846 | 0.752 | 0.679 | 0.76 | 0.634 | 1.09 |  | 0.321
NCI-H460 | 0.848 | 0.663 | 0.821 | 0.824 | 0.61 | 0.513 | 0.478 | 0.477 | 0.0578 | 0.0622 | 0.0572 | 0.0629 | 0.878 | 0.936 | 0.866 | 0.659 | 0.132 |  | 0.196 | 0.0632
NCI-H1666 | 1.18 | 0.743 | 0.823 | 0.605 | 0.799 | 0.763 | 0.594 | 0.525 | 0.948 | 0.803 | 0.822 | 0.853 | 0.853 | 0.656 | 0.613 | 0.573 | 0.498 | 0.902 | 0.734 | 0.871
NCI-H1651 | 0.936 | 0.898 | 1.05 | 0.849 | 0.434 | 0.378 | 0.348 | 0.34 | 0.64 | 0.673 | 0.519 | 0.497 | 0.575 | 0.65 | 0.49 | 0.271 | 0.275 | 1.02 | 0.359 | 0.51
NCI-H1755 | 1.11 | 1.04 | 1.02 | 1.05 | 0.474 | 0.476 | 0.419 | 0.414 | 0.406 | 0.431 | 0.619 | 0.366 | 0.984 | 1.01 | 0.989 | 0.548 | 0.714 | 0.993 | 0.418 | 0.524
NCI-H661 | 0.596 | 0.609 | 0.488 | 0.588 | 0.806 | 0.94 | 0.726 | 0.694 | 0.915 | 0.898 | 0.929 | 0.861 | 0.474 | 0.503 | 0.572 | 0.428 | 0.438 | 0.52 | 0.57 | 0.854
HARA | 0.938 | 0.917 | 0.844 | 0.983 | 0.25 | 0.299 | 0.166 | 0.264 | 0.266 | 0.27 | 0.303 | 0.215 | 0.653 | 0.773 | 0.68 |  | 0.604 | 0.854 | 0.202 | 
NCI-H596 | 1 | 1.11 | 1.23 | 0.999 | 0.673 | 0.53 | 0.707 | 0.545 | 0.514 | 0.546 | 0.475 | 0.478 | 1.07 | 0.972 | 1.09 | 0.871 | 0.666 | 1.03 | 0.493 | 0.485
